Each structure is given as a SMILES string.

Common to all, as to type: in vivo, rat
In series [1] the test system is rats. The experiment in a line: Conditioned Place Preference (CPP) model, reward-like effect of MEAI. The settings on record: 5 conditioning days, test on 6th day, difference from baseline. The method, then: (§1) Two groups were tested: One group received MEAI (four different doses), while the second group received cocaine in each conditioning day. Additionally, some rats that received cocaine were treated with MEAI on the test day to determine if MEAI has a treatment-like effect.
(§2) In the CPP assay, the rats learned to associate a reward with an environmental cue. Two groups of rats were put through a three-day baseline period during which each rat was allowed to freely move during 20 minutes from a striped to a smooth compartment in a closed arena. Time measurements were taken to determine which compartment the rat spent more time in (i.e., preferred). Baseline data was determined as an average duration of time spent in each compartment. After the baseline period, a training period of 5 days was conducted in which rats were injected with saline (I.P.) in the morning and placed in the preferred compartment for 20 minutes. Four hours after the saline injection, cocaine (15 mg/kg I.P.) or MEAI (4 doses; 20, 10, 5 and 2.5 mg/kg I.P.) was injected and the rat was placed in the less preferred compartment for 20 minutes. On the 6th day, a CPP test was conducted (identical to the baseline period) to determine if MEAI imparts a reward-like effect similar to cocaine. The duration time spent in each compartment was calculated as the difference between the baseline time and the testing time (seconds) as previously described.
In the first part of this study, we examined whether administration of MEAI in four different doses […] reward.

Series [2] relates to rats. Description: Side effects observed in rats dosed with MEAI during CPP conditioning. Conditions: anxiety, diarrhea, secretion of vaginal plug. The method, then: as §2
We started testing with 20 mg/kg of MEAI. […] Due to these side effects, we decided to test lower doses of MEAI as opposed to higher doses. Accordingly, the following dose tested was 10 mg/kg of MEAI. 51% of the rats receiving this dose had side effects, including anxiety, aggressiveness, piloerection, tremors low body posture, diarrhea, and secretion of “vaginal plug,” with a trend towards improved symptoms, although not statistically significant, compared to the 20 mg/kg dose. […] Overall, the mean that was most negative was for the dose 5 mg/kg, and therefore we decided to test the efficacy of this dose as a treatment for cocaine preference in rats.

Series [3] concerns cocaine preference in rats. The experiment in a line: CPP test, MEAI as a treatment for cocaine preference in rats. The settings on record: rats conditioned with cocaine 15 mg/kg. The method, then: as §1
as §2, with “Four hours after the saline injection, cocaine (15 mg/kg I.P.) or MEAI (4 doses; 20, 10, 5 and 2.5 mg/kg I.P.) was injected and the rat was placed in the less preferred compartment for 20 minutes. On the 6th day, a CPP test was conducted (identical to the baseline period) to determine if MEAI imparts a reward-like effect similar to cocaine.” left out, “described. […]” for “described.”
The two groups were divided as values below 100 seconds in a non-preferred compartment (MEAI A) and above 100 seconds (MEAI B). […] The behavioral data were analyzed with Ordinary one-way ANOVA. Data was expressed as mean±SEM and a probability value of […] was considered significant. n=5-12 rats per group. […]

As to `COc1ccc2c(c1)CC(N)C2` (stereo not shown) [MEAI, 5-methoxy-2-aminoindan], the “duration of time spent in a non-preferred place (reward)” value in series [1] (MEAI 2.5 mg/kg I.P.) was “negative”; in series [1] (MEAI 5 mg/kg I.P.), “negative”; in series [1] (MEAI 10 mg/kg I.P.) it was “rewarding effect”; in series [1] (MEAI 20 mg/kg I.P.), “low reward”. Besides, the “rats presenting side effects” value in series [2] (MEAI 2.5 mg/kg I.P.) was 21.4%; in series [2] (MEAI 5 mg/kg I.P.), 20.2%; in series [2] (MEAI 10 mg/kg I.P., aggressiveness, piloerection, tremors, low body posture), 51%; in series [2] (MEAI 20 mg/kg I.P., aggressiveness, piloerection, tremors, low body posture), 65.7%. For the same compound, in series [3] (MEAI 5 mg/kg i.p. compared with 10 mg/kg i.p. on test day (FIG. 2)), the “decrease of reward in cocaine-conditioned rats, 5 mg/kg versus 10 mg/kg” value is on record as “better results in decreasing reward”. Also, the “compartment preference of cocaine-conditioned rats after treatment” value in series [3] (MEAI 5 mg/kg i.p. on test day, 10 min before test) is recorded as “mixed”.

The values are drawn from patent US20250325500A1, “USE OF 5-METHOXY-2-AMINOINDAN ("MEAI") IN METHODS FOR TREATING COCAINE ADDICTION” (Clearmind Medicine Inc., priority 2022, published 2025).
